The text below walks through data of ChEMBL document CHEMBL1909046, “DrugMatrix in vitro pharmacology data”.

Tyrosine-protein kinase Lck, sequence (P06239 whole entry): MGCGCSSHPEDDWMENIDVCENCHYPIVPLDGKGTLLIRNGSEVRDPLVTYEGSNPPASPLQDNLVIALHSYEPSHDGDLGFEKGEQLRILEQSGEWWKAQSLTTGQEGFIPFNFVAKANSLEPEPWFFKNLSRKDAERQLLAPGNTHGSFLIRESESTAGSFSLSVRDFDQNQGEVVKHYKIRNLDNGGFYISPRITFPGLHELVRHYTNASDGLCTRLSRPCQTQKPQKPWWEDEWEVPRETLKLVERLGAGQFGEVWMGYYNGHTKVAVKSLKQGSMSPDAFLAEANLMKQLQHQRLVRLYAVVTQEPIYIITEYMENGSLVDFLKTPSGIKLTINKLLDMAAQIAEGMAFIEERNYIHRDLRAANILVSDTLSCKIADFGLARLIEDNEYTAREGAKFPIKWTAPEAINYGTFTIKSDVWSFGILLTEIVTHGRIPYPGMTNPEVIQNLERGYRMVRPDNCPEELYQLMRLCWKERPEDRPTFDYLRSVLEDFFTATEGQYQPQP

The target in one experiment is Receptor tyrosine-protein kinase erbB-2 (Homo sapiens, UniProt P04626). As to the kind of experiment: biochemical. It is filed as cell-based, Insect cells. The note with it: insect cells.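 Further: inhibition of HER2 kinase enzyme activity, measured with Poly(Glu:Tyr) as the phosphorylation substrate; in other assays of this panel Not Active means under 50% inhibition at 10 µM.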
For the compound `C=C1C(=O)O[C@@H]2C3O[C@]3(C)CC/C=C(\C)CC[C@@H]12` (some centres not stated), the IC50 entry was “Not Active”.

Consider OXALIPLATIN, for which the IC50 result is reported as “Not Active” and the Ki entry is “Not Active”.

In the case of `CNCCC=C1c2ccccc2CCc2ccccc21` [NORTRIPTYLINE], the IC50 entry was “Not Active”.

Turning to `NCC(=O)O` [GLYCINE], the IC50 result is reported as “Not Active”.

Take `O=C1CCc2cc(OCCCCc3nnnn3C3CCCCC3)ccc2N1` [CILOSTAZOL]: the IC50 result was “Not Active”.

System in the next experiment: not listed separately
As to the kind of experiment: DRUGMATRIX: Platelet-Derived Growth Factor (PDGF) radioligand binding (ligand: [125I] PDGF). It is filed as cell-based. The following applies: nih3t3; Not Active = under 50% inhibition at 10 µM.
Take `C=C1C(=O)O[C@@H]2C3O[C@]3(C)CC/C=C(\C)CC[C@@H]12` (some centres not stated): the IC50 entry is “Not Active” and the Ki entry was “Not Active”.

As to OXALIPLATIN, the IC50 entry is recorded as “Not Active” and the Ki entry is “Not Active”.

Turning to `CNCCC=C1c2ccccc2CCc2ccccc21` [NORTRIPTYLINE], the IC50 entry is “Not Active” and the Ki entry is recorded as “Not Active”.

With `NCC(=O)O` [GLYCINE], the IC50 result is “Not Active” and the Ki result is “Not Active”.

On to `O=C1CCc2cc(OCCCCc3nnnn3C3CCCCC3)ccc2N1` [CILOSTAZOL], for which the IC50 result is listed as “Not Active” and the Ki entry was “Not Active”.

Another experiment addresses T1, C-X-C chemokine receptor type 1 (Homo sapiens, UniProt P25024).
T1 sequence (P25024 whole entry): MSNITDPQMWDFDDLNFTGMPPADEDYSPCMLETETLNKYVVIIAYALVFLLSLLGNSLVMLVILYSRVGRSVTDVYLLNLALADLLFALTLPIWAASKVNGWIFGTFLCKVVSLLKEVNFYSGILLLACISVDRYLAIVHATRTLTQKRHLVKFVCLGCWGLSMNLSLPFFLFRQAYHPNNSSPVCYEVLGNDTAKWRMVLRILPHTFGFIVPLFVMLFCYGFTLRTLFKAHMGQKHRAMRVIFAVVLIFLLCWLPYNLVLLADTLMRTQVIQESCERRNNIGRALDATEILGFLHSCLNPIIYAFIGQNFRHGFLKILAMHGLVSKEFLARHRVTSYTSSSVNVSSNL
Assay: not given
Details: not given
For `C=C1C(=O)O[C@@H]2C3O[C@]3(C)CC/C=C(\C)CC[C@@H]12` (some centres not stated), the IC50 result was “Not Active”.

Consider OXALIPLATIN, for which the IC50 entry is recorded as “Not Active” and the Ki entry was “Not Active”.

Consider `CNCCC=C1c2ccccc2CCc2ccccc21` [NORTRIPTYLINE], for which the IC50 entry is “Not Active”.

On to `NCC(=O)O` [GLYCINE], for which the IC50 result is on record as “Not Active”.

For the compound `O=C1CCc2cc(OCCCCc3nnnn3C3CCCCC3)ccc2N1` [CILOSTAZOL], the IC50 entry was “Not Active”.

The target in a further experiment is T2, Cholecystokinin receptor type A (Homo sapiens, UniProt P32238). Further: in other assays of this panel Not Active means under 50% inhibition at 10 µM.
T2 sequence (P32238 whole entry): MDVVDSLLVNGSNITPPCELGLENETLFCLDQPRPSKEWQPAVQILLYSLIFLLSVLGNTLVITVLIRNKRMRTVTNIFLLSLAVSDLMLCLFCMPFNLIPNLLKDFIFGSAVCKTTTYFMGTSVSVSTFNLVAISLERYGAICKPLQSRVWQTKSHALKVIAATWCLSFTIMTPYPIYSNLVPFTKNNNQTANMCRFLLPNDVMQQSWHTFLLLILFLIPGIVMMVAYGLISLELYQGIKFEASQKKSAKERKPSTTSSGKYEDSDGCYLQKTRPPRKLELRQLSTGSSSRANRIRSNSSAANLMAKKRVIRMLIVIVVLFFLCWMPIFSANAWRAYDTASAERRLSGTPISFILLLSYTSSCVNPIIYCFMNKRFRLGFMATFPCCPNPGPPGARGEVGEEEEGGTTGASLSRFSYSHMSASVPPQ
Assay: not given
It is filed as cell membranes, Membrane. The note with it: 1321-n1.
For the compound `C=C1C(=O)O[C@@H]2C3O[C@]3(C)CC/C=C(\C)CC[C@@H]12` (some centres not stated), the IC50 entry is “Not Active”.

As for OXALIPLATIN, the IC50 result is “Not Active” and the Ki result is recorded as “Not Active”.

Turning to `CNCCC=C1c2ccccc2CCc2ccccc21` [NORTRIPTYLINE], the IC50 entry is “Not Active”.

As to `NCC(=O)O` [GLYCINE], the IC50 result is reported as “Not Active”.

As to `O=C1CCc2cc(OCCCCc3nnnn3C3CCCCC3)ccc2N1` [CILOSTAZOL], the IC50 entry is listed as “Not Active”.

Another experiment concerns the target Tyrosine-protein kinase Lck (Homo sapiens, UniProt P06239). As to the kind of experiment: DRUGMATRIX: Protein Tyrosine Kinase, LCK enzyme inhibition (substrate: Poly(Glu:Tyr)). The following applies: insect cells; Not Active = under 50% inhibition at 10 µM. It is filed as cell-based, Insect cells.
As to `C=C1C(=O)O[C@@H]2C3O[C@]3(C)CC/C=C(\C)CC[C@@H]12` (some centres not stated), the IC50 entry is on record as “Not Active”.

Turning to OXALIPLATIN, the IC50 entry is “Not Active” and the Ki entry is “Not Active”.

As to `CNCCC=C1c2ccccc2CCc2ccccc21` [NORTRIPTYLINE], the IC50 entry is reported as “Not Active”.

For the compound `NCC(=O)O` [GLYCINE], the IC50 entry is on record as “Not Active”.

Turning to `O=C1CCc2cc(OCCCCc3nnnn3C3CCCCC3)ccc2N1` [CILOSTAZOL], the IC50 result is “Not Active”.

In a further experiment the target is T3, Estrogen receptor (Homo sapiens, UniProt P03372). Further: in other assays of this panel Not Active means under 50% inhibition at 10 µM.
T3 sequence (P03372 whole entry): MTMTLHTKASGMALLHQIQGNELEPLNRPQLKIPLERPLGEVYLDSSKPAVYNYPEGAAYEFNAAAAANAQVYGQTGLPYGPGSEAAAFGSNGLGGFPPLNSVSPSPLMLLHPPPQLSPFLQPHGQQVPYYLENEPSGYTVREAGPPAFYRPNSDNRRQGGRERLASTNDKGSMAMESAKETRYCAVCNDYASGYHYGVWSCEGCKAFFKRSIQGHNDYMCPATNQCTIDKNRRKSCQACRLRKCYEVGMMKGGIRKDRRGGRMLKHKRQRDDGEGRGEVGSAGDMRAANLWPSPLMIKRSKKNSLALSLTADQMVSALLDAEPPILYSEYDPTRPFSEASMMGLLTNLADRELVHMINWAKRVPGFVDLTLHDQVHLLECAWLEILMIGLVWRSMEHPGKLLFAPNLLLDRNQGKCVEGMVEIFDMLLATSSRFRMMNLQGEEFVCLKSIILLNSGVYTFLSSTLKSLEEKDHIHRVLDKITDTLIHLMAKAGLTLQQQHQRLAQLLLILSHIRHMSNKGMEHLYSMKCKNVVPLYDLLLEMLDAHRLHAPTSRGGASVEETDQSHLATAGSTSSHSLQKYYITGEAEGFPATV
Assay: not given
The following applies: sf9.
`C=C1C(=O)O[C@@H]2C3O[C@]3(C)CC/C=C(\C)CC[C@@H]12` (some centres not stated): the IC50 result is listed as “Not Active”.

For OXALIPLATIN, the IC50 result is reported as “Not Active” and the Ki entry is reported as “Not Active”.

For `CNCCC=C1c2ccccc2CCc2ccccc21` [NORTRIPTYLINE], the IC50 entry was “Not Active”.

Turning to `NCC(=O)O` [GLYCINE], the IC50 entry is reported as “Not Active”.

In the case of `O=C1CCc2cc(OCCCCc3nnnn3C3CCCCC3)ccc2N1` [CILOSTAZOL], the IC50 entry is listed as “Not Active”.

The target in another experiment is T4, Vasoactive intestinal polypeptide receptor 1 (Homo sapiens, UniProt P32241). Further: in other assays of this panel Not Active means under 50% inhibition at 10 µM.
T4 sequence (P32241 whole entry): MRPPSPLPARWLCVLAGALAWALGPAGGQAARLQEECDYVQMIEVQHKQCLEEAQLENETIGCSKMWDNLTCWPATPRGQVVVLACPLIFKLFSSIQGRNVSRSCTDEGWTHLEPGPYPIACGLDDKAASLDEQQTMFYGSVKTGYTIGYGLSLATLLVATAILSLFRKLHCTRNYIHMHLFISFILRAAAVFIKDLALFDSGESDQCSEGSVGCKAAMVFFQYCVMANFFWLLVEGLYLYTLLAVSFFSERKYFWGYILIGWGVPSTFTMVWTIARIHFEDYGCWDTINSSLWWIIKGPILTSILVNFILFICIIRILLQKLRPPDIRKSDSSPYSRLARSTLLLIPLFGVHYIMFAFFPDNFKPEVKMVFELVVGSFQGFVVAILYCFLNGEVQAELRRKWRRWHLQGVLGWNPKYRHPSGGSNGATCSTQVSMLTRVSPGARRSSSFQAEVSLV
Assay: not given
The note with it: ht-29. Type of experiment: cell membranes, Membrane.
Turning to `C=C1C(=O)O[C@@H]2C3O[C@]3(C)CC/C=C(\C)CC[C@@H]12` (some centres not stated), the IC50 entry is “Not Active”.

In the case of OXALIPLATIN, the IC50 entry is reported as “Not Active” and the Ki result is reported as “Not Active”.

Consider `CNCCC=C1c2ccccc2CCc2ccccc21` [NORTRIPTYLINE], for which the IC50 result is listed as “Not Active”.

Regarding `NCC(=O)O` [GLYCINE], the IC50 result is reported as “Not Active”.

As to `O=C1CCc2cc(OCCCCc3nnnn3C3CCCCC3)ccc2N1` [CILOSTAZOL], the IC50 result was “Not Active”.

For the next experiment, the target named is T5, Glucocorticoid receptor (Homo sapiens, UniProt P04150). Further: in other assays of this panel Not Active means under 50% inhibition at 10 µM.
T5 sequence (P04150 whole entry): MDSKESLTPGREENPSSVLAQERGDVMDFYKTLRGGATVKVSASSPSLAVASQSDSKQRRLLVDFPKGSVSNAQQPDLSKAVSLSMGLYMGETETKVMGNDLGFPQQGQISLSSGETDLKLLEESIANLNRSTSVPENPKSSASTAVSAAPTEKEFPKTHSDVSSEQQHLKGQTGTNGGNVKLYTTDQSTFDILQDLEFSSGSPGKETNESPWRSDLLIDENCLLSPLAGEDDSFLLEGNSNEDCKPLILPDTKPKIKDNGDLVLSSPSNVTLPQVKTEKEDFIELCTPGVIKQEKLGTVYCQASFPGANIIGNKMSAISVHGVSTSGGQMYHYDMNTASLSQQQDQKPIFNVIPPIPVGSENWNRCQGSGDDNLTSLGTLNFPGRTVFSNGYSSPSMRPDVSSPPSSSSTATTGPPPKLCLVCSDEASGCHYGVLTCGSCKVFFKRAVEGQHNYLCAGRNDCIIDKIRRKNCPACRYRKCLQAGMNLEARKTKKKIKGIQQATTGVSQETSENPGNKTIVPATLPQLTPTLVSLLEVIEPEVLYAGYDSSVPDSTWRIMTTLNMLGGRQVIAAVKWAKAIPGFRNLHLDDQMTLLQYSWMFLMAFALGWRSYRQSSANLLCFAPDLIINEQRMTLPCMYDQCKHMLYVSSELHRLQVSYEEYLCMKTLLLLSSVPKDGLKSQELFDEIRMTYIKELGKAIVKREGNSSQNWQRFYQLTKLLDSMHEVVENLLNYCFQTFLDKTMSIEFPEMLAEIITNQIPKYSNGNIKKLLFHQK
Assay: not given
The following applies: hela s3.
Take `C=C1C(=O)O[C@@H]2C3O[C@]3(C)CC/C=C(\C)CC[C@@H]12` (some centres not stated): the IC50 entry was “Not Active”.

As for OXALIPLATIN, the IC50 entry is listed as “Not Active” and the Ki entry is given as “Not Active”.

Take `CNCCC=C1c2ccccc2CCc2ccccc21` [NORTRIPTYLINE]: the IC50 result is “Not Active”.

`NCC(=O)O` [GLYCINE]: the IC50 entry was “Not Active”.

Turning to `O=C1CCc2cc(OCCCCc3nnnn3C3CCCCC3)ccc2N1` [CILOSTAZOL], the IC50 entry is listed as “Not Active”.
